The values that follow come from paper PMC10539439 (Pharmacological Reports, 2023).

Each structure is given as a SMILES string. “And” between values parts separate entries of the source, which are not always exact repeats. Equal entries are not always repeated. Where two headings read alike, the source gives them in different places.

One experiment addresses α1-adrenoceptor. The experiment is described as follows: Competitive radioligand-binding assay, [3H]prazosin. On the set-up: species or system rat. As to the method: (§1) 10 mM stock solutions of test compounds were prepared in DMSO. Serial dilutions of compounds were prepared in 96-well microplate in assay buffers using an automated pipetting system epMotion 5070 (Eppendorf, Poland). Each compound was tested in 6 concentrations of 1.0E-05 to 1.0E-10 M (final concentration).
(§2) Affinity towards α1- and α2-adrenoceptors was evaluated using the competitive radioligand-binding assay. Experiments were conducted in the rat cerebral cortex. Radioligand [3H]prazosin (84,2 Ci/mmol, α1-adrenoceptor, PerkinElmer, Poland, NET823001MC) and [3H]clonidine (70.5 Ci/mmol, α2-adrenoceptor, PerkinElmer, Poland, NET613250UC) were used. The membrane preparation and the assay procedure were carried out accordingly as previously published. Radioactivity was counted on the MicroBeta2 scintillation counter (PerkinElmer, Poland). Data were fitted to a one-site curve-fitting equation with Prism 8 (GraphPad Software, USA), and Ki values were estimated from the Cheng–Prusoff equation.

The conditions of experiment [1]: 5 mg/kg b.w., i.p.; cited from earlier work.
A further experiment deals with T1, α2A-adrenoceptor (Homo sapiens, UniProt P08913).
T1 sequence (P08913 1-465): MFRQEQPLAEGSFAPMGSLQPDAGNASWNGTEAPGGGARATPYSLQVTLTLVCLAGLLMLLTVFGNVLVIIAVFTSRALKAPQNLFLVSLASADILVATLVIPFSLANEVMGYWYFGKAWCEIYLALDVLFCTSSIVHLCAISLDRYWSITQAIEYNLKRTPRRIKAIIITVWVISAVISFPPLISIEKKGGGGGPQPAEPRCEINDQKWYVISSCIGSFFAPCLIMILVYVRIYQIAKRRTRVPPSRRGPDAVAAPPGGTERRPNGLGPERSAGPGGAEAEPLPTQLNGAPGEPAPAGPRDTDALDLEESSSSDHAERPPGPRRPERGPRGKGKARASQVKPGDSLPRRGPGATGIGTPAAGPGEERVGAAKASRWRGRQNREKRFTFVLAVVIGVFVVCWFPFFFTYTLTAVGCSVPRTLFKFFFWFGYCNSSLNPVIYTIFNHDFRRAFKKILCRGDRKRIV
The experiment is described as follows: Intrinsic activity, Tango beta-lactamase reporter assay. The experiment is classed as cell-based. How it is done:
The intrinsic activity at α2A-adrenoceptor was assessed by the Tango assay technology that uses a mammalian-optimized beta-lactamase (bla) reporter gene combined with an FRET-enabled substrate to provide reliable and sensitive detection in cells. Cells are loaded with an engineered fluorescent substrate containing two fluorophores, coumarin, and fluorescein. In the absence of bla expression, the substrate molecule remains intact. In this state, excitation of the coumarin results in a transfer of fluorescence resonance energy to the fluorescein moiety and emission of green fluorescent light. However, in the presence of bla expression, the substrate is cleaved, separating the fluorophores and disrupting energy transfer. Excitation of the coumarin in the presence of bla enzyme activity results in a blue fluorescence signal.
Intrinsic activity assay was performed according to the manufacturer of the assay kit (Invitrogen, Life Technologies). Cells were harvested and resuspended in an assay medium at a density of 312,500 cells/ml. 32 μL per well of cell suspension was added to the test compound wells, the unstimulated control wells, and the stimulated control wells, and incubated for 16–24 h. To perform an agonist assay, 8 μL of 5 × of agonist in the assay medium was added to the cells. […] Then, the agonist and antagonist plates were incubated in a humidified incubator at 37 °C/5% CO2 for 5 h. After the incubation, 8 μL of LiveBLAzer™-FRET B/G substrate mixture (CCF4-AM) was loaded into cells in the absence of direct strong lighting, covered, and incubated at room temperature for 2 h.

For a further experiment, the target named is T2, α2-adrenoceptor (Rattus norvegicus, UniProt P22909).
T2 sequence (P22909 1-465): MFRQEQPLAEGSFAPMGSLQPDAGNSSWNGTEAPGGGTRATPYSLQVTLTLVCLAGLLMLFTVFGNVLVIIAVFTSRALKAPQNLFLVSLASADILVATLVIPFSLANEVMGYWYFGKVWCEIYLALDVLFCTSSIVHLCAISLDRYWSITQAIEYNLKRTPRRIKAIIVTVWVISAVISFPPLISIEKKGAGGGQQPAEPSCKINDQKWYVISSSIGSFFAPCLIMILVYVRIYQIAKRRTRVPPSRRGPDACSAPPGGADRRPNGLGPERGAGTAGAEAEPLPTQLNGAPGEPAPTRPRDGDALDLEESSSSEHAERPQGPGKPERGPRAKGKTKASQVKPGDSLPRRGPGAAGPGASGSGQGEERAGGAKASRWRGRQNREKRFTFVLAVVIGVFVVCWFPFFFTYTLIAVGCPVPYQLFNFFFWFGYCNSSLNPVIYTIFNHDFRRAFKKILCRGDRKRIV
The experiment is described as follows: Competitive radioligand-binding assay, [3H]clonidine. As to conditions: for CPM: ADRA2, experiments 1-3, duplicates; for Affinity towards α2-adrenoceptors: summary table. As to the method: as §1, §2

Setting [2] is: [3H] prazosin, rat cerebral cortex, mean ± SEM, n = 3, read-out: Ki.
Setting [3] is: ADRAA2A, agonist, concentration 1e-8.
[4] abbreviates: ADRAA2A, agonist, concentration 1e-7.
Setting [5] is: ADRAA2A, agonist, concentration 1e-6.

For orientation: Ki means a dissociation constant, usually derived from enzyme kinetics or from competition with a known ligand. Turning to `N=C(N)N/N=C/c1c(Cl)cccc1Cl` [Guanabenz], the Ki at α1-adrenoceptor (ADRA1, experiment 1, 2, 3, read-out: Ki, single experiments) is 259 nM and 250 nM and 251 nM; on α1-adrenoceptor (setting [2]), 253 nM. Further, in the experiment with α1-adrenoceptor (summary table), the “Affinity towards α1-adrenoceptors” value is recorded as “+”. For the same molecule, the Plasma cholesterol level result in experiment [1] was “↑ [17]”. Besides, in experiment [1], the Plasma glucose level result is “↓ [17]”. For the same molecule, the Plasma triglyceride level entry in experiment [1] is “↓ [17]”. The “Intrinsic activity at α2A-adrenoceptors (in words)” value at α2A-adrenoceptor is on record as “Full agonist”. In addition, the “% of max response” value was -0.6454% and -0.8183% and -1.252% and -0.7319% on α2A-adrenoceptor (ADRAA2A, agonist, concentration 1e-11); -1.12% and -1.114% and -1.036% and -1.117% at α2A-adrenoceptor (ADRAA2A, agonist, concentration 1e-10); 0.5496% and 0.2076% and -0.728% and 0.3786% at α2A-adrenoceptor (ADRAA2A, agonist, concentration 1e-9); 28.3106% and 18.1657% and 31.6251% at α2A-adrenoceptor (setting [3]); 69.7622% and 66.4917% and 70.9692% at α2A-adrenoceptor (setting [4]); 80.6636% and 82.7247% and 76.4282% at α2A-adrenoceptor (setting [5]). For the same molecule, the Emax on α2A-adrenoceptor (ADRAA2A, agonist, concentration 1e-8, read-out: % of max response) was 34.9%; on α2A-adrenoceptor (ADRAA2A, agonist, concentration 1e-7, read-out: % of max response), 72.2%; on α2A-adrenoceptor (ADRAA2A, agonist, concentration 1e-6, read-out: % of max response), 72.2%. Also, the CPM on α2-adrenoceptor (log of molar concentration -6) is 89 CPM and 117 CPM and 99 CPM and 116 CPM and 125 CPM and 115 CPM; at α2-adrenoceptor (log of molar concentration -7), 120 CPM and 135 CPM and 148 CPM and 196 CPM and 133 CPM; on α2-adrenoceptor (log of molar concentration -8) it was 152 CPM and 165 CPM and 205 CPM and 265 CPM and 170 CPM; at α2-adrenoceptor (log of molar concentration -10), 320 CPM and 325 CPM and 437 CPM and 458 CPM and 265 CPM and 270 CPM. Moreover, on α2-adrenoceptor, the “Affinity towards α2-adrenoceptors” value is recorded as “+”.

A word on the EC50: it is the concentration giving half of the maximal effect. Higher therefore signals a need for much substance. In the case of `Cl.N=C(N)NN=Cc1c(Cl)cc(O)cc1Cl` [4-OH-Guanabenz, 2-[(2,6-Dichloro-4-hydroxyphenyl)methylene]hydrazinecarboximidamide Hydrochloride], the Ki at α1-adrenoceptor (setting [2]) was determined as 3860 ± 1010 nM. Also, on α2A-adrenoceptor, the “Intrinsic activity at α2A-adrenoceptors (in words)” value is reported as “Partial agonist”. Further, the “% of max response” value on α2A-adrenoceptor (setting [3]) is -0.7437% and -0.7189% and -0.7313% and -0.7282%; at α2A-adrenoceptor (setting [4]) it was 2.887% and 2.799% and 3.482%; on α2A-adrenoceptor (setting [5]) it was 33.4463% and 31.1405% and 34.9698%; on α2A-adrenoceptor (ADRAA2A, agonist, concentration 1e-5) it was 37.4215% and 35.9932% and 36.5487%. Further, the concentration giving a half-maximal response (EC50) on α2A-adrenoceptor (agonist assay) came out at 316 nM. Besides, the “activity relative to full agonist brimonidine” value at α2A-adrenoceptor (agonist assay, maximal activity reached) amounted to 30%. Besides, the Emax at α2A-adrenoceptor (read-out: % of max response, ADRAA2A, agonist, concentration 1e-7) was found to be 2.71%; at α2A-adrenoceptor (read-out: % of max response, ADRAA2A, agonist, concentration 1e-6), 28.8%; on α2A-adrenoceptor (read-out: % of max response, ADRAA2A, agonist, concentration 1e-5), 34.6%. In addition, the “affinity toward α2-adrenoreceptor (in words)” value at α2-adrenoceptor was “high affinity”. For the same molecule, the CPM is 78 CPM and 116 CPM and 96 CPM and 117 CPM and 113 CPM and 111 CPM on α2-adrenoceptor (log of molar concentration -5); 132 CPM and 157 CPM and 112 CPM and 131 CPM and 141 CPM at α2-adrenoceptor (log of molar concentration -6); 198 CPM and 156 CPM and 131 CPM and 190 CPM and 205 CPM on α2-adrenoceptor (log of molar concentration -7); 314 CPM and 316 CPM and 394 CPM and 302 CPM and 300 CPM at α2-adrenoceptor (log of molar concentration -8); 420 CPM and 340 CPM and 383 CPM and 296 CPM and 320 CPM and 437 CPM at α2-adrenoceptor (log of molar concentration -9); 404 CPM and 380 CPM and 358 CPM and 403 CPM and 400 CPM and 370 CPM on α2-adrenoceptor (log of molar concentration -10). The “Affinity towards α2-adrenoceptors” value on α2-adrenoceptor was “+”.
